Columns and labels:
[1] = test system: differentiated mouse muscle cells (C2c12 cells); test: eGFP expression in differentiated C2c12 cells, coat with or without muscle targeting domain; format: cell-based
Method: In a second experiment, differentiated mouse muscle cells (C2c12 cells) were transfected with formulations comprising mRNA expressing eGFP. The muscle cells were differentiated as follows: C2c12 cells were seeded and allowed to grow to confluence in a growth medium. Once the cells were confluent, the medium on the cells was replaced with a differentiation medium for 2 days to allow the cells to develop myotube characteristics. The differentiation medium was replaced with the growth medium 30 mins before transfection. The cells were transfected for 24 hours with nanocarriers indicated in FIG. 27 and harvested to assay the eGFP reporter gene expression using a plate reader. The mRNA used expressed eGFP. The growth medium contained high glucose DMEM (Gibco), 10% FBS (Gibco), 2 mM L-glutamine (Gibco). The differentiated medium contained high glucose DMEM (Gibco), 2% horse serum (Gibco), 2 mM L-glutamine (Gibco), 1 uM insulin.
As in the first experiment, the formulations used were comprising GSCG1,2-RHL (N:P=0.6:1 to mRNA) with DOTMA/DOPE (w/w=10:1 to mRNA) and mRNA, and coated with either the same equivalent of mole of dendritic PGA with or without the muscle targeting domain. The cells were harvested 24 hours post-transfection. Control: Cells were not transfected with mRNA or transfected with mRNA alone. The dendrimer with the muscle targeting domain was muscle-G1-EEEE. […]

[2] = test system: mouse muscle cells (C2c12 cells); test: eGFP expression in undifferentiated C2c12 cells, coat with or without muscle targeting domain; format: cell-based; conditions: GSCG1,2-RHL N:P=0.6:1, DOTMA/DOPE w/w 10:1, same mole equivalent of coat, 24 hours; FIG. 26
Source text: Nanocarrier comprising GSCG1,2-RHL (N:P=0.6:1 to mRNA) with DOTMA/DOPE (w/w=10:1 to mRNA) and mRNA was firstly prepared as described. The nanoparticles were then coated with a dendrimer with a muscle targeting domain, the muscle-G1-EEEE (Ac-EEEE)2[…]-(Acp)-NH2), at different mRNA:coating mole ratios, between 0.5:1 to 5:1, preferably around 2.74:1. As a control, the nanoparticles were coated with a dendrimer without a muscle targeting domain, the G1-EEEE, at different mRNA:coating mole ratios, between 0.5:1 to 5:1, preferably around 2.74:1.
In a first experiment, mouse muscle cells (C2c12 cells) were transfected with formulations comprising mRNA expressing eGFP. The formulations used were comprising GSCG1,2-RHL (N:P=0.6:1 to mRNA) with DOTMA/DOPE (w/w=10:1 to mRNA) and mRNA, and coated with either the same equivalent of mole of dendritic PGA with or without the muscle targeting domain. The cells were harvested 24 hours post-transfection. Control: Cells were not transfected with mRNA. The dendrimer with the muscle targeting domain was (Ac-EEEE)2[…]-(Acp)-NH2 (named “muscle-G1-EEEE”. ASSLNIA, SEQ ID NO:1, is the muscle targeting motif). The dendrimer without the muscle targeting domain was (Ac-EEEE)2[…]-NH2 (“[…]1-EEEE”).

[3] = Zeta potential of nanoparticles (electrophoretic light scattering); format: physicochemical
Source text: Zeta potential is a measurement of the magnitude of the electrostatic or charge repulsion/attraction between particles. This can be determined by analysing particle mobility and charge (Zeta potential) using the Electrophoretic Light Scattering (ELS) technique.
Zeta potential is a measurement of the magnitude of the electrostatic or charge repulsion/attraction between particles. This can be determined by analysing particle mobility and charge (Zeta potential) using the Electrophoretic Light Scattering (ELS) technique. […] Parameters: reference material: polystyrene latex, dispersant: water, 25° C. The measurements of the zeta potential were carried out using the Zetasizer Advance Series—Pro (Malvern Panalytical Ltd, Malvern, UK) according to the manufacturer's instructions.

[4] = Dynamic light scattering: hydrodynamic size and polydispersity index (PDI) of nanoparticles; format: physicochemical
In short: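 Hydrodynamic size measured by DLS (Stokes-Einstein), PDI from cumulants fit per ISO 13321/22412. Samples diluted 16× in 25 mM HEPES, water as dispersant, 25° C; PDI measured on dendrimer:nucleic acid 8:1 nanoparticles.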

[5] = test system: Mouse muscle cells (C2c12); test: eGFP expression (RFU/mg) in C2c12 muscle cells, muscle-targeting dendrimers; format: cell-based; conditions: N:P=0.6:1, DOTMA:DOPE w/w 10:1, 24 hours post-transfection; FIG. 9
Method: Cell lines, transfection reagents and mRNA. C2c12 cells were maintained in DMEM medium with 10% (v/v) FCS and 1% (v/v) L-glutamine in a humidified atmosphere in 5% CO2, and 37° C. The Alexa Fluor 488 tagged mRNA, expressing an eGFP, was purchased from RiboPro. The mRNA either expressing an eGFP or firefly luciferase was purchased from Trilink. DOTMA:DOPE, 1:1 (w/w) were obtained from Invitrogen or Encapsula NanoSciences LLC.
Transfection procedure. 24 hours before transfection, C2c12 cells were seeded in 96well plates in order to reach 70% confluence. mRNA transfection complexes were formed by mixing mRNA with the dendrimers in 25 mM HEPES buffer, then with DOTMA:DOPE in 25 mM HEPES buffer at 25° C. The transfection complexes were then overlaid to the cells in full growth medium. The cells were harvested 4 hours after transfection for FACS analysis or 24 hours post transfection for reporter genes assays.
Two variants (NTX2 and NTX3) of the peptide dendrimer GSCG1,2-RL, 3-LR ((LR)8(KRL)4(KRL)2KGSC-NH2) were made which include the ASSLNIA (SEQ ID NO:1) muscle targeting peptide. Transfection of muscle cells with GSCG1,2-RL, 3-LR, NTX2 ((LR)8(KRL)4(KRL)2[…](Acp)-NH2) or NTX3 ((LR)8(KRL)4(KRL)2[…](Acp)-NH2) was performed using eGFP mRNA and transfection efficiency was assayed using either flow cytometry or the transgene expression assay. […]
Transgene expression assay: The cells were washed twice with PBS and incubated with 50 ul of 1× M-PER lysis buffer (Thermo 11874111). […] 40 ul of lysate from each well was transferred to all black 96 well plates for quantification of eGFP relative fluorescence unit (RFU), absorbance at 535 nm, using Molecular devices SpectraMax iD5.
Protein content determination: The protein content of each cell lysate was determined by mixing the lysate (25 μL) with Pierce™ BCA Protein Assay Kit (200 ul, Thermo Scientific). After 30 minutes of 37° C. incubation in at dark, absorbance was measured at 562 nm with Molecular devices SpectraMax iD5 and converted to protein concentration using a BSA standard curve. […]

C2c12 muscle cells = test: Uptake of Alexa488 labelled mRNA in C2c12 cells, flow cytometry; format: cell-based, mouse; conditions: NTX3 N:P=0.6:1, DOTMA:DOPE w/w 10:1, 4 hours; FIG. 18
Method: FIG. 18. […] Labelled mRNA delivery to cells. Mouse muscle cells (C2c12) took up mRNA labelled with an Alexa488 fluorophore following transfection. The cells were transfected with labelled mRNA alone, labelled mRNA with NTX3 (N:P=0.6:1) and DOTMA:DOPE for 4 hours, and the uptake of the mRNA was measured by flow cytometry. NTX3 is GSCG1,2-RL, 3-LR linked with a muscle cell targeting peptide with 6 histidines. DOTMA:DOPE was used at w/w=10:1 to mRNA.
C2c12 cells were maintained in DMEM medium with 10% (v/v) FCS and 1% (v/v) L-glutamine in a humidified atmosphere in 5% CO2 and 37° C. The Alexa Fluor 488 tagged mRNA, expressing an eGFP, was purchased from RiboPro. 24 hours before transfection, C2c12 cells were seeded in 96 well plates in order to reach 70% confluence. mRNA transfection complexes were formed by mixing mRNA with the dendrimers in 25 mM HEPES buffer, then with DOTMA:DOPE (1:1 w/w) in 25 mM HEPES buffer at 25° C. The transfection complexes (“NTX3”) were then overlaid to the cells in full growth medium. The cells were harvested for FACS analysis 4 hours after transfection. Cells medium and PBS used to wash each well, was collected from each treatment before the addition of […] EDTA in PBS. After 10 minutes of incubation at 37° C., the cells were gently detached from the plates and pelleted down at 400 g for 8 minutes, 4° C. […] Collected data were analysed using FlowJo 10.0 software.

[6] = GSCG1,2-RHL N:P 0.6:1, DOTMA/DOPE nanoparticles coated at 2.06:1 (dendrimer to mRNA)
[7] = GSCG1,2-RHL N:P 0.6:1, DOTMA/DOPE nanoparticles coated at 2.72:1 (dendrimer to mRNA)

Row | zeta potential [3, 6] | zeta potential [3, 7] | PDI [4, 6] | size [4, 6] | PDI [4, 7] | size [4, 7] | Substance | eGFP expression versus coat without muscle targeting domain ([1]; GSCG1,2-RHL N:P=0.6:1, DOTMA/DOPE w/w 10:1, same mole equivalent of coat, 24 hours, FIG. 27) | mRNA transfection versus nanoparticles coated with dendrimer without the targeting domain ([1]; coat mole ratio 2.72:1 and 2.06:1 (dendrimer to mRNA)) | eGFP expression versus coat without muscle targeting domain [2] | increase in eGFP expression compared to GSCG1,2-RL, 3-LR [5] | cells successfully transfected (uptake of Alexa488 labelled mRNA) (C2c12 muscle cells)
1 | ~38.7 mV | ~44.0 mV | 0.15 | 176 nm | 0.14 | 172 nm | (Ac-EEEE)2KGSCGAASSLNIA-(Acp)-NH2) [muscle-G1-EEEE] | dramatic increase in eGFP expression | improved mRNA transfection | dramatic increase in eGFP expression | – | –
2 | – | – | – | – | – | – | (LR)8(KRL)4(KRL)2KGSCHHHHHHGAASSLNIA(Acp)-NH2 [NTX3] | – | – | – | three-fold | approximately 100%
